Assay results published in US9023789B2, “Amylin analogs and pharmaceutical compositions thereof” (Novo Nordisk A/S, priority 2012, dated 2015).
Numbered stars: 1 amine (or outer) side, 2 acyl side, 3 side chain; on linkers, the order of the positions; unused ones are H or OH. Bridge positions count the residues as written; N and C are the ends. Peptide text beside a SMILES is read from it. * marks the point of attachment. C20 diacid = O=C(O)CCCCCCCCCCCCCCCCCCC(=O)*; γGlu = O=C(O)[C@H](CCC(=O)[*:2])N[*:1]

Assay: ASSAY (III) ThT fibrillation assay for physical stability
Type: physicochemical
Outline: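 Physical stability scored by ThT fluorescence (444 nm excitation, 485 nm emission) tracked every 20 min during 37 °C incubation with 960 rpm shaking, ThT at 1 μM final. Values are replicate means with SD at chosen times; HPLC against pramlintide standard gives initial and post-assay soluble concentrations.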

Q: Which “ThT pH 4.0 lag time (h)” value does the source give for CC[C@H](C)[C@H](NC(=O)[C@H](C)NC(=O)CNC(=O)[C@H](Cc1ccccc1)NC(=O)[C@H](CC(N)=O)NC(=O)[C@@H]1CCCN1C(=O)[C@H](CO)NC(=O)[C@H](CO)NC(=O)[C@H](Cc1c[nH]cn1)NC(=O)[C@H](CCCNC(=N)N)NC(=O)[C@H](CC(C)C)NC(=O)[C@H](Cc1ccccc1)NC(=O)[C@H](CCC(=O)O)NC(=O)[C@H](C)NC(=O)[C@H](CC(C)C)NC(=O)[C@H](CCCNC(=N)N)NC(=O)[C@H](CCC(N)=O)NC(=O)[C@@H](NC(=O)[C@H](C)NC(=O)[C@@H]1CSSC[C@H](NC(=O)[C@H](CCCCN)NC(=O)CC[C@H](NC(=O)CCCCCCCCCCCCCCCCCCC(=O)O)C(=O)O)C(=O)N[C@@H](CC(N)=O)C(=O)N[C@@H]([C@@H](C)O)C(=O)N[C@@H](C)C(=O)N[C@@H]([C@@H](C)O)C(=O)N1)[C@@H](C)O)C(=O)N1CCC[C@H]1C(=O)N[C@@H](CO)C(=O)N[C@@H](CO)C(=O)N[C@H](C(=O)N[C@@H](CC(N)=O)C(=O)N[C@H](C(=O)NCC(=O)N[C@@H](CO)C(=O)N[C@@H](CC(N)=O)C(=O)N[C@H](C(=O)N1CCC[C@H]1C(N)=O)[C@@H](C)O)C(C)C)[C@@H](C)O [Example 8] ({C20 diacid-γGlu}-KCNTATCATQRLAEFLRHSSPNFGAIPSSTNVGSNTP-NH2; disulfide 2-7) here?
A: 45 h

Q: For CC[C@H](C)[C@H](NC(=O)[C@H](C)NC(=O)CNC(=O)[C@H](Cc1ccccc1)NC(=O)[C@H](CC(N)=O)NC(=O)[C@@H]1CCCN1C(=O)[C@H](CO)NC(=O)[C@H](CO)NC(=O)[C@H](Cc1c[nH]cn1)NC(=O)[C@H](CCCNC(=N)N)NC(=O)[C@H](CC(C)C)NC(=O)[C@H](Cc1ccccc1)NC(=O)[C@H](CC(=O)O)NC(=O)[C@H](C)NC(=O)[C@H](CC(C)C)NC(=O)[C@H](CCCNC(=N)N)NC(=O)[C@H](CCC(N)=O)NC(=O)[C@@H](NC(=O)[C@H](C)NC(=O)[C@@H]1CSSC[C@H](NC(=O)[C@H](CCCCN)NC(=O)CC[C@H](NC(=O)CCCCCCCCCCCCCCCCCCC(=O)O)C(=O)O)C(=O)N[C@@H](CC(N)=O)C(=O)N[C@@H]([C@@H](C)O)C(=O)N[C@@H](C)C(=O)N[C@@H]([C@@H](C)O)C(=O)N1)[C@@H](C)O)C(=O)N1CCC[C@H]1C(=O)N[C@@H](CO)C(=O)N[C@@H](CO)C(=O)N[C@H](C(=O)N[C@@H](CC(N)=O)C(=O)N[C@H](C(=O)NCC(=O)N[C@@H](CO)C(=O)N[C@@H](CC(N)=O)C(=O)N[C@H](C(=O)N1CCC[C@H]1C(N)=O)[C@@H](C)O)C(C)C)[C@@H](C)O [Example 10] ({C20 diacid-γGlu}-KCNTATCATQRLADFLRHSSPNFGAIPSSTNVGSNTP-NH2; disulfide 2-7 (inferred)), which “ThT pH 4.0 lag time (h)” value is on record?
A: 45 h

Q: With CC[C@H](C)[C@H](NC(=O)[C@H](C)NC(=O)CNC(=O)[C@H](Cc1ccccc1)NC(=O)[C@H](CC(N)=O)NC(=O)[C@@H]1CCCN1C(=O)[C@H](CO)NC(=O)[C@H](CO)NC(=O)[C@H](Cc1c[nH]cn1)NC(=O)[C@H](CCCNC(=N)N)NC(=O)[C@H](CC(C)C)NC(=O)[C@H](Cc1ccccc1)NC(=O)[C@H](CCC(=O)O)NC(=O)[C@H](C)NC(=O)[C@H](CC(C)C)NC(=O)[C@H](CCCNC(=N)N)NC(=O)[C@H](CCC(N)=O)NC(=O)[C@@H](NC(=O)[C@H](C)NC(=O)[C@@H]1CSSC[C@H](NC(=O)[C@H](CCCCN)NC(=O)CC[C@H](NC(=O)CCCCCCCCCCCCCCCCCCC(=O)O)C(=O)O)C(=O)N[C@@H](CC(N)=O)C(=O)N[C@@H]([C@@H](C)O)C(=O)N[C@@H](C)C(=O)N[C@@H]([C@@H](C)O)C(=O)N1)[C@@H](C)O)C(=O)N1CCC[C@H]1C(=O)N[C@@H](CO)C(=O)N[C@@H](CO)C(=O)N[C@H](C(=O)N[C@@H](CC(N)=O)C(=O)N[C@H](C(=O)NCC(=O)N[C@@H](CO)C(=O)N[C@@H](CC(=O)O)C(=O)N[C@H](C(=O)N1CCC[C@H]1C(N)=O)[C@@H](C)O)C(C)C)[C@@H](C)O [Example 11] ({C20 diacid-γGlu}-KCNTATCATQRLAEFLRHSSPNFGAIPSSTNVGSDTP-NH2; disulfide 2-7 (inferred)) as the molecule, how does the “ThT pH 4.0 lag time (h)” value read?
A: 45 h

Q: For CC[C@H](C)[C@H](NC(=O)[C@H](C)NC(=O)CNC(=O)[C@H](Cc1ccccc1)NC(=O)[C@H](CC(N)=O)NC(=O)[C@@H]1CCCN1C(=O)[C@H](CO)NC(=O)[C@H](CO)NC(=O)[C@H](Cc1c[nH]cn1)NC(=O)[C@H](CCCNC(=N)N)NC(=O)[C@H](CC(C)C)NC(=O)[C@H](Cc1ccccc1)NC(=O)[C@H](CCC(=O)O)NC(=O)[C@H](C)NC(=O)[C@H](CC(C)C)NC(=O)[C@H](CCCNC(=N)N)NC(=O)[C@H](CCC(N)=O)NC(=O)[C@@H](NC(=O)[C@H](C)NC(=O)[C@@H]1CSSC[C@H](NC(=O)[C@H](CCCCN)NC(=O)CC[C@H](NC(=O)CC[C@H](NC(=O)CCCCCCCCCCCCCCCCCCC(=O)O)C(=O)O)C(=O)O)C(=O)N[C@@H](CC(N)=O)C(=O)N[C@@H]([C@@H](C)O)C(=O)N[C@@H](C)C(=O)N[C@@H]([C@@H](C)O)C(=O)N1)[C@@H](C)O)C(=O)N1CCC[C@H]1C(=O)N[C@@H](CO)C(=O)N[C@@H](CO)C(=O)N[C@H](C(=O)N[C@@H](CC(N)=O)C(=O)N[C@H](C(=O)NCC(=O)N[C@@H](CO)C(=O)N[C@@H](CC(N)=O)C(=O)N[C@H](C(=O)N[C@@H](Cc1ccc(O)cc1)C(N)=O)[C@@H](C)O)C(C)C)[C@@H](C)O [Example 15] ({C20 diacid-γGlu-γGlu}-KCNTATCATQRLAEFLRHSSPNFGAIPSSTNVGSNTY-NH2; disulfide 2-7 (inferred)), which “ThT pH 4.0 lag time (h)” value is on record?
A: 45 h
